Measurements taken from paper PMC8704661, “A Structural Approach to Anti-Virulence: A Discovery Pipeline” (Microorganisms, 2021).
Entries after “also recorded” stand apart in the source; their conditions may differ.

Columns and labels:
Plx2A [1] = biological target: T1, Plx2A (Paenibacillus larvae, UniProt M9V3B7); conditions: cited from earlier work
[2] = tested on: model insect cell culture; set-up: method as in PMID 34564612; conditions: cited from earlier work
Plx2A [3] = biological target: T1, Plx2A; experiment: biochemical
Plx2A [4] = biological target: T1, Plx2A; experiment: biochemical; format: binding
C3bot1 = conditions: cited from earlier work
Vis toxin = tested on: Vis toxin; set-up: method as in PMID 26352925; conditions: cited from earlier work
[5] = tested on: P. larvae ERIC I-infected honey bee larva; set-up: method as in PMID 34564612; conditions: P. larvae ERIC I infection; cited from earlier work
C3larvin = tested on: C3larvin; set-up: method as in PMID 25477523; conditions: read-out: Ki (C3larvin mART enzymatic activity); cited from earlier work
Escherichia coli = tested on: Escherichia coli; set-up: method as in PMID 34740095; conditions: cited from earlier work
Staphylococcus aureus = tested on: Staphylococcus aureus; set-up: method as in PMID 34740095; conditions: cited from earlier work
Pseudomonas aeruginosa = tested on: Pseudomonas aeruginosa; set-up: method as in PMID 34740095; conditions: cited from earlier work

| SMILES | Inhibition of Plx2A GH activity (Plx2A [1]) | Protection of cultured insect cells from Plx2A intoxication [2] | IC50 (Plx2A [3]) | Kd (Plx2A [4]) | other results |
| --- | --- | --- | --- | --- | --- |
| COc1ccc(-c2cc(=O)c3c(O)cc(O)cc3o2)cc1 [Acacetin, 5,7-dihydroxy-2-(4-methoxyphenyl)-4H-chromen-4-one] | strong inhibitors | protected the cultured cells from Plx2A intoxication | – | – | Concentration that protected the cell culture against Plx2A cytotoxicity (prevented bi-nucleated cells) [2]: 30 µM |
| O=c1cc(-c2ccccc2)oc2cc(O)c(O)c(O)c12 [Baicalein, 5,6,7-trihydroxy-2-phenyl-4H-chromen-4-one] | strong inhibitors | not Baicalein | – | – | – |
| O=c1cc(-c2ccccc2)oc2cc(O)cc(O)c12 [Chrysin, 5,7-dihydroxy-2-phenyl-4H-chromen-4-one] | – | – | 49.2 ± 2.5 µM | 40.6 ± 4.7 µM | – |
| CS(=O)(=O)NC[C@@H]1CCCN(c2ncnc3[nH]ncc23)C1 [Inhibitor M3, N-{[(3R)-1-{1H-pyrazolo[3,4-d]pyrimidin-4-yl}piperidin-3-yl]methyl}methanesulfon amide] | potent inhibitor; also recorded: strong inhibitors | protected the cultured cells from Plx2A intoxication | 216 ± 22.7 µM | – | Inhibition of C3bot1 (C3bot1): effective inhibitor; Inhibition of Vis toxin (Vis toxin): effective inhibitor; Concentration that protected the cell culture against Plx2A cytotoxicity (prevented bi-nucleated cells) [2]: 300 µM; Protection of honey bee larva / reduction of larval mortality [5]: failed to protect honey bee larva; Ki (C3larvin): 11 µM |
| COc1cc(-c2cc(=O)c3c(O)c(OC)c(O)cc3o2)ccc1O [Jaceosidin, 5,7-dihydroxy-2-(4-hydroxy-3-methoxyphenyl)-6-methoxy-4H-chromen-4-one] | – | – | 73.9 ± 4.7 µM | 24.1 ± 2.9 µM | – |
| O=c1c(O)c(-c2ccc(O)cc2)oc2cc(O)cc(O)c12 [Kaempferol, 3,5,7-trihydroxy-2-(4-hydroxyphenyl)-4H-chromen-4-one] | – | – | 79.9 ± 6 µM | 37.3 ± 3.6 µM | – |
| O=c1cc(-c2ccc(O)c(O)c2)oc2cc(O)cc(O)c12 [Luteolin, 2-(3,4-dihydroxyphenyl)-5,7-dihydroxy-4H-chromen-4-one] | – | – | 68.1 ± 1.8 µM | 24 ± 1.5 µM | – |
| O=c1c(O)c(-c2ccc(O)cc2O)oc2cc(O)cc(O)c12 [Morin, 2-(2,4-dihydroxyphenyl)-3,5,7-trihydroxy-4H-chromen-4-one] | – | – | 109 ± 4.8 µM | 32.8 ± 11.7 µM | – |
| O=c1c(O)c(-c2ccc(O)c(O)c2)oc2cc(O)cc(O)c12 [Quercetin, 2-(3,4-dihydroxyphenyl)-3,5,7-trihydroxy-4H-chromen-4-one] | – | – | 24.3 ± 0.8 µM | 19.9 ± 0.4 µM | Antibacterial activity (Escherichia coli): potent antibacterial activity; Antibacterial activity (Staphylococcus aureus): potent antibacterial activity; Ki (Plx2A [3]): 18 ± 2.8 µM; Mechanism of inhibition of Plx2A GH activity (Lineweaver-Burk) (Plx2A [3]): non-competitive inhibition; also recorded: non-competitive mechanism; Antibacterial activity (Pseudomonas aeruginosa): potent antibacterial activity |
